Assay results as given in US9944721B2, “Polysialic acid and use for treatment of neurodegenerative and neuroinflammatory diseases” (RHEINISCHE FRIEDRICH-WILHELMS UNIVERSITÄT BONN, priority 2013, dated 2018).

How the values were obtained:
Assay type in all cases: cell-based
[1] = system: co-culture of human iPSdM1 microglia and iPS cell-derived neurons with amyloid-β1-42; assay: Microglia-neuron co-culture with fibrillary amyloid-β1-42, 48 hours (neurite length); conditions: 48 hours co-culture with microglia and 1 μM fibrillary amyloid-β1-42; without PSA-20 0.64+/−0.03; FIG. 4G
Description: Human induced pluripotent stem cell derived microglia (iPSdM) were obtained from iPS cells. iPSdM-1 line was used in this study generated from the iLB-C-35m-r1 clone (Bonn). iPSdM-1 (here named microglia or microglial cells) were culture in N2-medium consisting of DMEM/F12 culture medium (Gibco) supplemented with 1% N2 (Invitrogen), 0.48 mM L-glutamine (Gibco) and 100 μg/ml penicillin/streptomycin (Gibco). Cells were cultured with high density and split 1:5. After splitting, cells recovered and attached again to the new dishes.
Human induced pluripotent stem (iPS) cells (Foreskin-1, WiCell) were used for generation of primitive neural stem cell (pNSC) and their differentiation into neurons according to a modified protocol, which was used to obtain primitive neural precursors from human embryonic stem cells. Briefly, iPS cells were cultured on feeder cells to form small colonies. […]
Cells were fixed for 15 minutes with 4% paraformaldehyde (PFA), blocked and permeabilized for 60 minutes with a solution that contained bovine serum albumin (10% BSA) and normal goat serum (5% nGS) and 0.1% TritonX-100. […] Ten images were randomly collected from each experimental setup by confocal laser scanning microscopy (Fluoview 1000, Olympus) and total lengths of neuronal branches from β-tubulin-III stained neurites was determined done by the NIH ImageJ/NeuronJ software.

[2] = system: human macrophage cell line THP-1; assay: LPS-induced TNF-alpha gene transcription in human macrophages; conditions: THP-1, LPS 1 μg/ml, 24 hours; 0.15 μM and 0.5 μM; FIG. 5B
Description: The human monocyte line THP-1 (ATCC TIB-202) was cultured in RPMI medium with 10% FCS, 1% sodium pyruvate and 1% penicillin/streptomycin (100×) (all Gibco, Invitrogen) in 75 ml cell culture flasks (Sarstedt). For differentiation into tissue macrophages the line was cultured for 3 hours in normal cell culture medium containing 0.5 μM phorbol 12-myristate 13-acetate (Sigma) and afterwards in phorbol 12-myristate 13-acetate free medium for at least 24 hours.
FIG. 5B illustrates the effect of low molecular weight PSA (PSA-20) on the pro-inflammatory cytokine TNF-alpha. The human macrophage cell line THP-1 was treated with lipopolysaccharides (LPS, 1 μg/ml) and PSA-20 (different concentrations) for 24 hours. Gene transcripts for tumor necrosis factor-α a (TNFα) were determined by quantitative RT-PCR and normalized to GAPDH. In detail, RNA isolation was performed using RNeasy Mini Kit (Qiagen) and transcription with the SuperScript First-Strand Synthesis System (Invitrogen). Quantitative RT-PCR with specific oligonucleotides (GAPDH: […] (SEQ ID NO: 1) and […] (SEQ ID NO: 2); TNFα: […] (SEQ ID NO: 3) and […] (SEQ ID NO: 4)) was performed using SYBR green PCR Master Mix with the Mastercycler epgradients S (Eppendorf). Results were normalized to GAPDH. Quantification using the delta-CT method was carried out.

[3] = system: human microglial cells; assay: Phagocytosis associated oxidative burst: neural debris triggered superoxide release (DHE)
Description: To measure the relative production of superoxide by the microglial cells, human microglial cells were plated in 4-chamber culture dishes. After 24 hours cells were treated with 5 mg/ml neural debris for 15 minutes with or without 1 hour PSA-20 pre-incubation at concentrations of 0.15 μM, 0.5 μM or 1.5 μM. Then, cells were washed 2-times with Krebs-HEPES-buffer. To detect the release of superoxide the cells were afterwards incubated for 15 minutes with 30 μM superoxide-sensitive fluorescent dye dihydroethidium (DHE) solution diluted in Krebs-HEPES-buffer. Finally cells were washed 2-times with Krebs-HEPES-buffer and fixed for 15 minutes with 0.25% glutaraldehyde and 4% PFA. In total, six images were randomly collected per experimental group by confocal laser scanning microscopy (Fluoview 1000, Olympus). All cells of the collected images were analyzed by Image J software (NIH).
To confirm the effect, Trolox as scavenger of superoxide and superoxide dismutase-1 (SOD1) as modifier of superoxide were used in a control experiment as described above using 1.5 μM of PSA-20 but adding either 40 μM Trolox or 20 μg/ml (SOD1) into the medium. […] As can be taken from the FIG. 9C, the radical scavenger Trolox and the superoxide dismutase SOD1 neutralized the neural debris triggered superoxide release and as controls confirmed that DHE detected an extracellular production of superoxide.

**Q.** With poly-(α(2→8)Neu5Ac)n [PSA-20] as the substance, how does the relative neurite length [1] read?
**A.** The relative neurite length was 0.82+/−0.03.

**Q.** What about the “LPS-induced gene transcription of TNF-alpha” value [2] of the same substance?
**A.** The value was “reduced”.

**Q.** What about the “superoxide release triggered by neural debris” value ([3]; 0.5 μM and 1.5 μM) of the same substance?
**A.** The value was “inhibited”.

**Q.** And the “relative superoxide production, debris-induced” value ([3]; 1.5 μM, 1 hour pre-incubation, debris alone 1.5+/−0.08, FIG. 9C)?
**A.** The value was 0.9+/−0.05.
